This test has as its system Hepatitis C virus genotype 1. Put plainly: Clinical study of alisporivir/peg-IFNα2a/ribavirin in treatment naïve chronic HCV genotype 1 patients, by IL28B genotype. It counts as in vivo, human. The text has this:
An international, multicentre, randomised, double-blind, placebo-controlled, 4-arm parallel-group multiple dose study comparing three alisporivir/peg-IFNα2a/ribavirin regimens to standard of care treatment in 272 treatment naïve chronic HCV genotype 1 patients is provided.
Patients are randomized into one of 3 treatment arms (A, B and C) as described below in a 1:1:1 ratio. The randomization is stratified by baseline HCV RNA (HCV RNA<800000 IU/mL or HCV RNA≧800000 IU/mL) and BMI (BMI<25 kg/m2 or BMI≧25 kg/m2) at screening.
Alisporivir: 3 capsules of 200 mg (600 mg) alisporivir 2×/day orally for 1 week followed by 3 capsules of 200 mg alisporivir (600 mg) 1×/day for 47 weeks.
Pegylated interferon alfa 2a: 180 μg subcutaneously (s.c.) once weekly for 48 weeks
Ribavirin: 1000 mg/day (<75 kg) or 1200 mg/day (≧75 kg) orally in two divided doses for 48 weeks
Primary efficacy endpoint: proportion of patients achieving SVR 24 (HCV RNA<10 IU/mL at maximum 24 weeks after treatment end).
Genotyping of IL-28B by was carried out using the MALDI-TOF MS (matrix-assisted laser desorption/ionization time-of-flight mass spectrometer) technique which has emerged as a widely applicable method in molecular biology for fast and highly accurate DNA analysis. […]
Frequency of genetic polymorphisms of IL28B was calculated by treatment arm. […]

Turning to `C/C=C/C[C@@H](C)[C@@H](O)[C@H]1C(=O)N[C@@H](CC)C(=O)N(C)[C@H](C)C(=O)N(CC)[C@@H](C(C)C)C(=O)N[C@@H](C(C)C)C(=O)N(C)[C@@H](CC(C)C)C(=O)N[C@@H](C)C(=O)N[C@H](C)C(=O)N(C)[C@@H](CC(C)C)C(=O)N(C)[C@@H](CC(C)C)C(=O)N(C)[C@@H](C(C)C)C(=O)N1C` [alisporivir, Alisporivir], the “treatment results of chronic Hepatitis C virus genotype 1 infection” value (patient with IL28B nonC/C genotype) is reported as “particularly satisfactory treatment results”. Where the note is “patients with IL28B C/C genotype”, the “treatment of HCV” value is “can also be used effectively”.

The values are drawn from patent US20150139950A1, “ALISPORIVIR TO TREAT HEPATITIS C VIRUS INFECTION” (Novartis AG, priority 2011, published 2015).
